According to US9440967B2, “1H-pyrrolo [2, 3 -B] pyridine derivatives and their use as radical quenchers” (Arizona Board of Regents on Behalf of Arizona State …, priority 2012, dated 2016):
Structures can show the parent of a compound that is named as a salt.

Legend:
CEM cells [1] = experiment: Reactive oxygen species (ROS) assay, DCFH-DA flow cytometry, glutathione depleted with diethyl maleate; format: cell-based, Human; settings: CEM cells pretreated 16 h with 1, 2.5 and 5 μM compound, then 5 mM DEM 50 min, FIG. 1; for protection against ROS production (DCF fluorescence): compared with α-tocopherol
Protocol: FIG. 1. Representative flow cytometric histograms overlay showing ROS production in CEM cells. Following pretreatment with the indicated compounds (1, 2.5 and 5 μM) for 16 h, the cells were treated with 5 mM diethyl maleate (DEM) for 50 min to deplete glutathione. The cells were washed in phosphate-buffered saline, and suspended in phosphate-buffered saline containing 20 mM glucose. Cells were loaded with 10 μM dichlorodihydrofluoresceindiacetate (DCFH-DA) for 20 min, and the green fluorescence (DCF) was measured by flow cytometry using the FL1-H channel. […] A total of 10000 events were recorded for each sample and analyzed with the CellQuest software (BD Biosciences). Increased DCF fluorescence, a measure of intracellular oxidation and ROS production, was determined by a shift in DCF fluorescence to the right on the x-axis of the FACS histogram. […] Data are expressed as the mean±SEM (n=3). α-TOH is α-tocopherol.
Cellular ROS production can be monitored using 2′,7′-dichlorodihydrofluorescein diacetate (DCFH-DA) (LeBel et al. (1992) Chem. Res. Toxicol. 5, 227-231) (Molecular Probes, Eugene, Oreg., USA), a membrane permeable and oxidant-sensitive fluorescent dye. DCFH-DA is a non-fluorescent derivative of fluorescein that emits fluorescence after being oxidized by hydrogen peroxide and other ROS. The emitted fluorescence is directly proportional to the concentration of hydrogen peroxide. DCFH-DA is nonionic and nonpolar and is easily taken up by cells. Once inside the cell, DCFH-DA is hydrolyzed by cellular esterases to non-fluorescent DCFH which traps the dye in the cell. In the presence of ROS including hydrogen peroxide, DCFH is oxidized to the highly fluorescent compound dichlorofluorescein (DCF). The intracellular DCF fluorescence is used as an index of cellular ROS production.
Cellular oxidative stress was induced by pharmacological depletion of glutathione (GSH) using the chemical diethylmaleate (DEM). ROS production was assessed by monitoring DCF fluorescence. Leukemic CEM cells (ATCC®, catalogue number CRL-2264) were cultured in RPMI (GIBCO, Grand island, NY, USA) with 10% FCS, 2 mM glutamine (HyClone, South Logan, Utah, USA) and 1% penicillin-streptomycin mix antibiotics (Cellgro, Manassas, Va., USA) supplements. CEM cells (5×10^5 cell/mL) were plated (1 mL) in 24-well plate and treated with the invention compounds (final concentration 1, 2.5, and 5 μM), and incubated at 37° C., 5% CO2 for 16 hours. The compounds tested were prepared by first making stock solutions (2.5 mM) in dimethylsulfoxide (DMSO). Cells were treated with 5 mM DEM for 50 minutes and collected by centrifugation at 300×g for 3 min and then washed twice with Hanks' Balanced Salt Solution (HSSB) buffer (Sigma, St. Louis, Mo. USA). Cells were re-suspended in HSSB buffer+20 mM glucose and incubated at 37° C. in the dark for 20 min with 10 μM DCFH-DA. Cells were collected by centrifugation at 300×g for 3 min and then washed twice with HSSB buffer. The samples were analyzed immediately by flow cytometry (Becton-Dickinson FACS Caliber), (Cell Quest software, BD Biosciences) using 488 nm excitation laser and FL1-H channel 538 nm emission filter. In each analysis, 10,000 events were recorded after cell debris were electronically gated out. Results obtained were verified by repeating experiments N=3 independent experiments. Authentic hydrogen peroxide was used as a positive control.

CEM leukemia cells [2] = experiment: Mitochondrial membrane potential (Δψm) assay, TMRM staining (FACS); format: cell-based, Human; settings: CEM cells pretreated 16 h, then 5 mM DEM 120 min, 250 nM TMRM; FIG. 3 and 4
Protocol: FIG. 3. Representative flow cytometric two-dimensional color density dot plot analyses of mitochondrial membrane potential (ΔΨm) in leukemia CEM cells stained with 250 nM TMRM and analyzed using FL2-H channel as described in the experimental section. The percentage of cells with intact ΔΨm is indicated in the top right quadrant of captions. Representative example from at least three independent experiments. A total of 10000 events were recorded for each sample and analyzed with the CellQuest software (BD Biosciences).
FIG. 4. A bar graph representation of means the percentage of cells with intact ΔΨm recorded by FACS. Data are expressed as means±SEM of three independent experiments run in duplicate.
Measurement of Mitochondrial Membrane Potential (Δψm) (FACS). For the determination of Δψm, CEM leukemia cells were pre-treated with or without the test compounds for 16 h. The cells were treated with 5 mM DEM for 120 minutes, collected by centrifugation at 300×g for 3 minutes and then washed twice with phosphate buffered saline. The cells were re-suspended in HSSB buffer and incubated at 37° C. in the dark for 15 minutes with 250 nM TMRM (a cationic dye which accumulates within mitochondria in accordance with the Δψm Nernst potential). Cells were collected by centrifugation at 300×g for 3 minutes and then washed twice with phosphate buffered saline. The samples were analyzed immediately by flow cytometry using 488 nm excitation laser and the FL2-H channel. The results obtained were verified in three independent experiments. The protonophore FCCP (10 μM) was used to dissipate the chemiosmotic proton gradient […] and served as a control for loss of Δψm. […] The results were verified by repeating the experiments in duplicate.

CEM leukemia cells [3] = experiment: Lipid peroxidation, C11-BODIPY581/591 oxidation in cell culture (FACS); format: cell-based, Human; settings: CEM cells pretreated 16 h with 2.5 and 5 μM compound, then 5 mM DEM 90 min; compared with α-tocopherol; FIG. 2
Protocol: FIG. 2. Comparison of the lipid peroxidation in CEM leukemia cells depleted of glutathione detected by utilizing the oxidation-sensitive fatty acid probe C-11 BODIPY^581/591 using flow cytometry. Increased C-11 BODIPY-green fluorescence (oxidized form), a measure of intracellular lipid peroxidation, was determined by increasing the geometric mean fluorescence intensity (GMFI) of C-11 BODIPY-green relative to the untreated control. A bar graph representing the percentage of the geometric mean fluorescence intensity (GMFI) of C-11 BODIPY-green fluorescence relative to a treated control is shown. Data are expressed as the mean±SEM (n=3). α-TOH is α-tocopherol.
Lipid peroxidation in CEM leukemia cells was detected by utilizing the oxidant-sensitive lipophilic probe C11 BODIPY^581/591. Briefly, CEM cells (5×10^5 cell/mL) were treated with the test compounds at final concentrations of 2.5 and 5 μM, and incubated at 37° C. for 16 h in a humidified atmosphere containing 5% CO2 in air. Cells were treated with 1 μMC11 BODIPY^581/591 in phenol red-free RPMI-1640 media and incubated at 37° C. in the dark for 30 minutes. The cells were washed twice with phosphate buffered saline and oxidative stress was induced with 5 mM DEM in phenol red-free RPMI-1640 media for 90 minutes. Treated cells were collected by centrifugation at 300×g for 3 minutes and then washed twice with phosphate buffered saline. Cells were re-suspended in 250 μL of phosphate buffered saline and were analyzed by FACS (FACS Calibur flow cytometer, Becton Dickinson) to monitor the change in intensity of the C11 BODIPY^581/591-green (oxidized) fluorescence signal. A total of 10000 events were recorded for each sample and analyzed with the CellQuest software (BD Biosciences). The results were verified by repeating the experiments in duplicate. Results are expressed as the relative percentage of treated control (DEM).

CEM cells [4] = experiment: Trypan blue cell viability assay of DEM-treated cells; format: cell-based, Human; settings: CEM cells pretreated 16 h, then 5 mM DEM 5.5 h; FIG. 5
Protocol: FIG. 5. Trypan blue exclusion assay of CEM cells treated with test compounds for 16 h before exposure to 5 mM diethyl maleate for 5.5 h. At the time of assay, >80% of the DEM-treated cells were trypan blue positive, whereas in the non-DEM treated control, >95% of the cells were viable. Cell viability was expressed as the percentage of control. Results are an average of three independents trials. α-TOH is α-tocopherol.
Cell viability determined by trypan blue exclusion assay: This technique was used to assess the cytoprotective effects of the invention compounds in cultured cells pharmacologically treated to induce cell death by GSH depletion. DEM was used to deplete cellular GSH and induce oxidative stress. The viability of DEM-treated CEM cells was determined by their ability to exclude the dye trypan blue. Viable cells exclude trypan blue; whereas, non-viable cells take up the dye and stain blue. Briefly, CEM lymphoblasts (CCL-119) were grown in RPMI 1640 medium (GIBCO, Grand island, NY, USA) supplemented with 10% fetal calf serum, 2 mM glutamine (HyClone, South Logan, Utah, USA), 1% penicillin-streptomycin mix (Cellgro, Manassas, Va., USA). Cells were seeded at a density of 5×10^5 cells/mL and treated with different concentrations of the invention compounds. Cells were incubated at 37° C. in a humidified atmosphere of 5% CO2 in air for 16 hours. After pre-incubation, the cells were treated with 5 mM DEM for 5.5 h. Cell viability was determined by staining cells with 0.4% trypan blue using a hemacytometer. At least 500 cells were counted for each experimental group. At the time of assay, >80% of DEM-treated cells were trypan blue positive; whereas, in non-DEM treated control cell cultures>95% cells were viable. Cell viability was expressed as the percentage of control. Data are expressed as means±S.E.M (n=3).

[5] = James et al. (2005) J Biol. Chem. 280, 21295-21312; cited from earlier work

SMILES: CCCCCCCCCCCCCCCCc1nc2c(c(C)c1OC(C)=O)CCN2C [Compound 2c, 1,4-Dimethyl-6-hexadecyl-2,3-dihydro-1H-pyrrolo[2,3-b]pyridin-5-yl acetate]
- protection against ROS production (DCF fluorescence) (CEM cells [1]): intermediate protection
- prevention of loss of Δψm (mitochondrial depolarization) (CEM leukemia cells [2]): less effective in preventing mitochondrial depolarization
- protection against lipid (membrane) peroxidation (C11-BODIPY-green fluorescence) (CEM leukemia cells [3]): Reduced protection

SMILES: CCCCCCCCCCc1nc2c(c(C)c1OC(C)=O)CCN2C [Compound 2b, 1,4-Dimethyl-6-decyl-2,3-dihydro-1H-pyrrolo[2,3-b]pyridin-5-yl acetate]
- intensity of DCF fluorescence (CEM cells [1]): significant decrease in the intensity of DCF fluorescence in a dose-dependent manner
- protection against ROS production (DCF fluorescence) (CEM cells [1]): significantly better protection than α-tocopherol
- cytoprotection (cell viability, trypan blue exclusion) (CEM cells [4]): more effective in cytoprotection than was α-TOH
- prevention of loss of Δψm (mitochondrial depolarization) (CEM leukemia cells [2]): the most effective in preventing mitochondrial depolarization
- protection against lipid (membrane) peroxidation (C11-BODIPY-green fluorescence) (CEM leukemia cells [3]): results comparable to α-TOH

SMILES: CCCCCCCCCCc1nc2c(c(C)c1O)CCN2C [Compound 1b, 1,4-Dimethyl-6-decyl-2,3-dihydro-1H-pyrrolo[2,3-b]pyridin-5-ol trifluoro acetic acid salt]
- intensity of DCF fluorescence (CEM cells [1]): significant decrease in the intensity of DCF fluorescence in a dose-dependent manner
- protection against ROS production (DCF fluorescence) (CEM cells [1]): significantly better protection than α-tocopherol
- cytoprotection (cell viability, trypan blue exclusion) (CEM cells [4]): more effective in cytoprotection than was α-TOH
- prevention of loss of Δψm (mitochondrial depolarization) (CEM leukemia cells [2]): the most effective in preventing mitochondrial depolarization
- protection against lipid (membrane) peroxidation (C11-BODIPY-green fluorescence) (CEM leukemia cells [3]): significantly better protection than was achieved with α-tocopherol

SMILES: Cc1c(C)c2c(c(C)c1O)CC[C@@](C)(CCC[C@H](C)CCC[C@H](C)CCCC(C)C)O2 [α-tocopherol, reference compound]
- cytoprotection (cell viability, trypan blue exclusion) (CEM cells [4]): significantly reduced cell death

SMILES: COC1=C(OC)C(=O)C(C/C=C(\C)CC/C=C(\C)CC/C=C(\C)CC/C=C(\C)CC/C=C(\C)CC/C=C(\C)CC/C=C(\C)CC/C=C(\C)CC/C=C(\C)CCC=C(C)C)=C(C)C1=O [coenzyme Q10]
- calculated octanol-water partition coefficient [5]: > 10^20

SMILES: CCCCCCCCCCCCCCCCc1nc2c(c(C)c1O)CCN2C [Compound 1c, 1,4-Dimethyl-6-hexadecyl-2,3-dihydro-1H-pyrrolo[2,3-b]pyridin-5-ol trifluoroacetic acid salt]
- protection against ROS production (DCF fluorescence) (CEM cells [1]): intermediate protection
- prevention of loss of Δψm (mitochondrial depolarization) (CEM leukemia cells [2]): less effective in preventing mitochondrial depolarization
- protection against lipid (membrane) peroxidation (C11-BODIPY-green fluorescence) (CEM leukemia cells [3]): Reduced protection

SMILES: CCCCCc1nc2c(c(C)c1OC(C)=O)CCN2C [Compound 2a, 1,4-Dimethyl-6-pentyl-2,3-dihydro-1H-pyrrolo[2,3-b]pyridin-5-yl acetate]
- protection against ROS production (DCF fluorescence) (CEM cells [1]): reduced protection
- prevention of loss of Δψm (mitochondrial depolarization) (CEM leukemia cells [2]): less effective in preventing mitochondrial depolarization
- protection against lipid (membrane) peroxidation (C11-BODIPY-green fluorescence) (CEM leukemia cells [3]): no protection

SMILES: CCCCCCCCCCCCCCCCc1cc(C)c2c(n1)N(C)CC2 [Example 10, 1,4-Dimethyl-6-hexadecyl-2,3-dihydro-1H-pyrrolo[2,3-b]pyridine]
- melting point: 43 to 45 °C

SMILES: CCCCCc1nc2c(c(C)c1O)CCN2C [Compound 1a, 1,4-Dimethyl-6-pentyl-2,3-dihydro-1H-pyrrolo[2,3-b]pyridin-5-ol trifluoroacetic acid salt]
- protection against ROS production (DCF fluorescence) (CEM cells [1]): reduced protection
- prevention of loss of Δψm (mitochondrial depolarization) (CEM leukemia cells [2]): less effective in preventing mitochondrial depolarization
- protection against lipid (membrane) peroxidation (C11-BODIPY-green fluorescence) (CEM leukemia cells [3]): no protection
